This is an account of results in patent publication US7135475B2, “Amide substituted xanthine derivatives” (Hoffmann-La Roche Inc., priority 2002, dated 2006).

The assay deals with T1, recombinant human cytosolic PEPCK (Homo sapiens, UniProt P35558).
T1 sequence (P35558 1-622): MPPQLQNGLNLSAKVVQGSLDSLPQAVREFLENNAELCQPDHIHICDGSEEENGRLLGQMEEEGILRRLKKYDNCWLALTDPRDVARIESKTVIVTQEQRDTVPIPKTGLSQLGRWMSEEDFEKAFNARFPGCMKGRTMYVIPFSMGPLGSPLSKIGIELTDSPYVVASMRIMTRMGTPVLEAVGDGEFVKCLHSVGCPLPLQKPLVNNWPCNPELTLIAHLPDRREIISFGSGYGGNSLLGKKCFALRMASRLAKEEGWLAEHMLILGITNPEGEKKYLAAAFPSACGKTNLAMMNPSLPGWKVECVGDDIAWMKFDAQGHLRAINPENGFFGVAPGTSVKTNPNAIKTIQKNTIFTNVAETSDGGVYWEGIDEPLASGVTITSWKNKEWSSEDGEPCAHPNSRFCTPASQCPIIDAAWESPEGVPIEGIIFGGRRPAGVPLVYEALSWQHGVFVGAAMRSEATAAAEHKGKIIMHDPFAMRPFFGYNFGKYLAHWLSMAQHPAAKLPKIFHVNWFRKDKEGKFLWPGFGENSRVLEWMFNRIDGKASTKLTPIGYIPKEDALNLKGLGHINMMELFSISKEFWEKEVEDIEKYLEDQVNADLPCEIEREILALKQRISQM
Briefly: PEPCK enzyme assay (coupled pyruvate kinase/lactate dehydrogenase, absorbance at 340). The format is biochemical. To be noted: recombinant human cytosolic GST-PEPCK; GTP and OAA at 3 fold and 10 fold Km; final DMSO 10%; room temperature, twenty minutes; read-out: In vitro IC50. As to the method: E. coli cells expressing GST-PEPCK were suspended in 5 volumes of lysis buffer (50 mM Tris-hydroxymethyl aminomethyl (TRIS), 150 mM sodium chloride (NaCl), 10 mM ethylene-diametetraacetic acid (EDTA), 5 mM dithiothreitol(DTT), 1% Nonidet P-40, pH 7.4) in the presence of protease inhibitors, incubated with lysozyme at 200 micrograms/ml for 30 min. at room temperature, and sonicated 4×30 seconds at 4 degrees C. After centrifugation at 12,000×g for 20 min. to remove insoluble material, the supernatant was loaded onto glutathione Sepharose (Pharmacia), washed with lysis buffer followed by washing with lysis buffer in the absence of NP-40. GST-PEPCK was eluted with the same buffer containing 20 mM glutathione. The eluted protein was concentrated and dialyzed against 25 mM Hepes(N-[2-hydroxyethyl]piperazine-N′[2-ethanesulfonic acid), 150 mM NaCl, 2.5 mM EDTA, 5 mM DTT, 30% glycerol, pH 7.4, and stored at −20 ° C.
The inhibitory effect of the compounds of the present invention on PEPCK enzymatic activity was determined using recombinant human cytosolic PEPCK, expressed and purified from E.coli as a GST-fusion. Guanosine triphosphate (GTP) and manganese dependent PEPCK enzyme activity catalyzed the decarboxylation of oxalacetate leading to the formation of guanosine diphosphate (GDP) and phosphoenol pyruvate (PEP). This reaction is coupled to pyruvate kinase and lactate dehydrogenase catalyzed reactions and the overall reaction rate determined by measuring the change in absorbance at 340 nm (Chang, H. C. and Lane M. D., J. Biol.Chem. 241:2413–2420, 1966). The following modifications were made to the protocol: 2.5 μg of recombinant, human cytosolic glutathione-S-transferase (GST)-PEPCK was added to a reaction mixture at room temperature which contained 0.3 mM GTP, 0.3 mM oxaloacetate (OAA), 3 mM magnesium chloride (MgCl2), 0.075 mM manganese chloride (MnCl2), 30 mM potassium phosphates (KPO4), pH 7.6, 1 mM dithiothreitol (DTT), 0.2 mM adenosine diphosphate (ADP), 1 mM nicotinamide adenine dinucleotide, reduced form (NADH), 0.9 Units/ml each of pyruvate kinase and lactate dehydrogenase and 1 mg/ml bovine serum albumin (BSA). Test compounds were added such that final concentration of DMSO was 10%. Reactions were run for twenty minutes.
Km values for GTP and OAA were determined according to Michelis-Menton conditions as described in Cornish-Bowden (Fundamentals of Enzyme Kinetics, 1995) in essentially the coupled assay conditions described above. […] Test compounds were added to reactions over a range of concentrations and IC50's were calculated from plots of inhibitor concentration versus enzyme rate. This method of determination of IC50 values is equally applicable to calculations based on PEPCK cellular assay.
The in vitro biological activity of several representative preferred compounds of the present invention in the foregoing PEPCK enzymatic assay is presented in Table 1.

For `Cc1nn(C)c(C)c1C(=O)C(=O)N(C)c1ccc(Cc2nc3c([nH]2)c(=O)n(Cc2ccccc2F)c(=O)n3CC2CC2)cc1` [Example 103, N-{4-[3-Cyclopropylmethyl-1-(2-fluorobenzyl)-2,6-dioxo-2,3,6,7-tetrahydro-1H-purin-8-ylmethyl]-phenyl}-N-methyl-2-oxo-2-(1,3,5-trimethyl-1H-pyrazol-4-yl)-acetamide], the IC50 (as a rule, the midpoint of a concentration-inhibition curve) amounted to 250 nM.

Turning to `Cc1nn(C)c(Cl)c1C(=O)N(C)c1ccc(Cc2nc3c([nH]2)c(=O)n(Cc2ccccc2F)c(=O)n3CC2CC2)cc1` [Example 104, 3-Chloro-1,5-dimethyl-1H-pyrazole-4-carboxylic acid {4-[3-cyclopropylmethyl-1-(2-fluorobenzyl)-2,6-dioxo-2,3,6,7-tetrahydro-1H-purin-8-ylmethyl]-phenyl}-methyl-amide], the IC50 came to 280 nM.

With `Cc1nc(C)c(C(=O)N(C)c2ccc(Cc3nc4c([nH]3)c(=O)n(Cc3ccccc3F)c(=O)n4CC3CC3)cc2)s1` [Example 105, 2,4-Dimethyl-thiazole-5-carboxylic acid {4-[3-cyclopropylmethyl-1-(2-fluorobenzyl)-2,6-dioxo-2,3,6,7-tetrahydro-1H-purin-8-ylmethyl]-phenyl}-methyl-amide], the IC50 came to 320 nM.

Take `Cc1nc(N)sc1C(=O)N(C)c1ccc(Cc2nc3c([nH]2)c(=O)n(Cc2ccccc2F)c(=O)n3CC2CC2)cc1` [Example 106, 2-Amino-4-methyl-thiazole-5-carboxylic acid {4-[3-cyclopropylmethyl-1-(2-fluorobenzyl)-2,6-dioxo-2,3,6,7-tetrahydro-1H-purin-8-ylmethyl]-phenyl}-methyl-amide]: the IC50 amounted to 370 nM.

Turning to `Cc1nn(C)cc1C(=O)N(C)c1ccc(Cc2nc3c([nH]2)c(=O)n(Cc2ccccc2F)c(=O)n3CC2CC2)cc1` [Example 107, 1,3-Dimethyl-1H-pyrazole-4-carboxylic acid {4-[3-cyclopropylmethyl-1-(2-fluorobenzyl)-2,6-dioxo-2,3,6,7-tetrahydro-1H-purin-8-ylmethyl]-phenyl}-methyl-amide], the IC50 is 500 nM.

On to `Cc1nnsc1C(=O)N(C)c1ccc(Cc2nc3c([nH]2)c(=O)n(Cc2ccccc2F)c(=O)n3CC2CC2)cc1` [Example 108, 4-Methyl-[1,2,3]thiadiazole-5-carboxylic acid {4-[3-cyclopropylmethyl-1-(2-fluorobenzyl)-2,6-dioxo-2,3,6,7-tetrahydro-1H-purin-8-ylmethyl]-phenyl}-methyl-amide], for which the IC50 amounted to 550 nM.

For `Cc1nocc1C(=O)N(C)c1ccc(Cc2nc3c([nH]2)c(=O)n(Cc2ccccc2F)c(=O)n3CC2CC2)cc1` [Example 109, 3-Methyl-isoxazole-4-carboxylic acid {4-[3-cyclopropylmethyl-1-(2-fluorobenzyl)-2,6-dioxo-2,3,6,7-tetrahydro-1H-purin-8-ylmethyl]-phenyl}-methyl-amide], the IC50 was determined as 570 nM.

Regarding `Cc1noc(C)c1C(=O)N(C)c1ccc(Cc2nc3c([nH]2)c(=O)n(Cc2ccccc2F)c(=O)n3CC2CC2)cc1` [Example 110, 3,5-Dimethyl-isoxazole-4-carboxylic acid {4-[3-cyclopropylmethyl-1-(2-fluorobenzyl)-2,6-dioxo-2,3,6,7-tetrahydro-1H-purin-8-ylmethyl]-phenyl}-methyl-amide], the IC50 amounted to 660 nM.

As for `CN(C(=O)c1csnn1)c1ccc(Cc2nc3c([nH]2)c(=O)n(Cc2ccccc2F)c(=O)n3CC2CC2)cc1` [Example 111, [1,2,3]Thiadiazole-4-carboxylic acid {4-[3-cyclopropylmethyl-1-(2-fluorobenzyl)-2,6-dioxo-2,3,6,7-tetrahydro-1H-purin-8-ylmethyl]-phenyl}-methyl-amide], the IC50 worked out at 660 nM.

Consider `CN(C(=O)c1cnn(C)c1)c1ccc(Cc2nc3c([nH]2)c(=O)n(Cc2ccccc2F)c(=O)n3CC2CC2)cc1` [Example 112, 1-Methyl-1H-pyrazole-4-carboxylic acid {4-[3-cyclopropylmethyl-1-(2-fluorobenzyl)-2,6-dioxo-2,3,6,7-tetrahydro-1H-purin-8-ylmethyl]-phenyl}-methyl-amide], for which the IC50 is 690 nM.

As to `CC(=O)Nc1csc(C)c1C(=O)N(C)c1ccc(Cc2nc3c([nH]2)c(=O)n(Cc2ccccc2F)c(=O)n3CC2CC2)cc1` [Example 113, 4-Acetylamino-2-methyl-thiophene-3-carboxylic acid {4-[3-cyclopropylmethyl-1-(2-fluorobenzyl)-2,6-dioxo-2,3,6,7-tetrahydro-1H-purin-8-ylmethyl]-phenyl}-methyl-amide], the IC50 came to 740 nM.

`Cc1oncc1C(=O)N(C)c1ccc(Cc2nc3c([nH]2)c(=O)n(Cc2ccccc2F)c(=O)n3CC2CC2)cc1` [Example 114, 5-Methyl-isoxazole-4-carboxylic acid {4-[3-cyclopropylmethyl-1-(2-fluorobenzyl)-2,6-dioxo-2,3,6,7-tetrahydro-1H-purin-8-ylmethyl]-phenyl}-methyl-amide]: the IC50 came to 740 nM.

`CN(C(=O)c1sccc1C(N)=O)c1ccc(Cc2nc3c([nH]2)c(=O)n(Cc2ccccc2F)c(=O)n3CC2CC2)cc1` [Example 115, Thiophene-2,3-dicarboxylic acid 3-amide 2-({4-[3-cyclopropylmethyl-1-(2-fluorobenzyl)-2,6-dioxo-2,3,6,7-tetrahydro-1H-purin-8-ylmethyl]-phenyl}-methyl-amide)]: the IC50 stood at 930 nM.

As for `CCN(C(=O)c1c(C)nn(C)c1C)c1ccc(Cc2nc3c([nH]2)c(=O)n(Cc2ccccc2F)c(=O)n3CC2CC2)cc1` [Example 117, 1,3,5-Trimethyl-1H-pyrazole-4-carboxylic acid {4-[3-cyclopropylmethyl-1-(2-fluorobenzyl)-2,6-dioxo-2,3,6,7-tetrahydro-1H-purin-8-ylmethyl]-phenyl}-ethyl-amide], the IC50 came to 190 nM.

As to `CCCCN(C(=O)c1ccc(C)nc1)c1ccc(Cc2nc3c([nH]2)c(=O)n(Cc2ccccc2F)c(=O)n3CCCC)cc1` [Example 118, N-Butyl-N-{4-[3-butyl-1-(2-fluorobenzyl)-2,6-dioxo-2,3,6,7-tetrahydro-1H-purin-8-ylmethyl]-phenyl}-6-methyl-nicotinamide], the IC50 is 560 nM.

Consider `Cc1ccc(C(=O)N(c2ccc(Cc3nc4c([nH]3)c(=O)n(Cc3ccccc3F)c(=O)n4CC3CC3)cc2)C(C)C)cn1` [Example 119, N-{4-[3-Cyclopropylmethyl-1-(2-fluorobenzyl)-2,6-dioxo-2,3,6,7-tetrahydro-1H-purin-8-ylmethyl]-phenyl}-N-isopropyl-6-methyl-nicotinamide], for which the IC50 turned out to be 310 nM.

For the compound `CC(C)N(C(=O)Cc1cccnc1)c1ccc(Cc2nc3c([nH]2)c(=O)n(Cc2ccccc2F)c(=O)n3CC2CC2)cc1` [Example 120, N-{4-[3-Cyclopropylmethyl-1-(2-fluorobenzyl)-2,6-dioxo-2,3,6,7-tetrahydro-1H-purin-8-ylmethyl]-phenyl}-N-isopropyl-2-pyridin-3-yl-acetamide], the IC50 came to 400 nM.

Turning to `Cc1ccc(C(=O)N(CC2CCC2)c2ccc(Cc3nc4c([nH]3)c(=O)n(Cc3ccccc3F)c(=O)n4CC3CCC3)cc2)cn1` [Example 121, N-Cyclobutylmethyl-N-{4-[3-cyclobutylmethyl-1-(2-fluorobenzyl)-2,6-dioxo-2,3,6,7-tetrahydro-1H-purin-8-ylmethyl]-phenyl}-6-methyl-nicotinamide], the IC50 was 390 nM.
